Measurements reported in ChEMBL document CHEMBL1201862, “PubChem BioAssay data set” (2004).
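Briefly, cells in 96-well plates were exposed to five compound concentrations for 48 h, and endpoints were estimated by linear interpolation. Abbreviation: GI50, concentration required for 50% inhibition of growth.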 Active and inactive are the calls of the source. No stated cut-off is given here; in the data, active = GI50 up to about 1.1 µM and inactive = higher.

Key:
Experiment in all cases: NCI-60 cell line screen, 48 h
[1] = tested on: A498
[2] = tested on: A549
[3] = tested on: CCRF-CEM
[4] = tested on: COLO 205
[5] = tested on: M14
[6] = tested on: MDA-MB-435
[7] = tested on: MDA-N
[8] = tested on: MOLT-4
[9] = tested on: Malme-3M
[10] = tested on: NCI-H226
[11] = tested on: NCI/ADR-RES
[12] = tested on: OVCAR-8
[13] = tested on: SF-268
[14] = tested on: SK-MEL-28
[15] = tested on: SK-MEL-2
[16] = tested on: SNB-75
[17] = tested on: SW-620
[18] = tested on: UO-31
[19] = tested on: HT-29

SMILES | GI50 [1] | GI50 [2] | GI50 [3] | GI50 [4] | GI50 [5] | GI50 [6] | GI50 [7] | GI50 [8] | GI50 [9] | GI50 [10] | GI50 [11] | GI50 [12] | GI50 [13] | GI50 [14] | GI50 [15] | GI50 [16] | GI50 [17] | GI50 [18] | GI50 [19]
CCOC(=O)c1nc2cc(C(F)(F)F)ccc2nc1Oc1ccc(C(=O)OC)cc1 | > 100 µM (inactive) | > 100 µM (inactive) | 97.1 µM (inactive) | > 100 µM (inactive) | 64.3 µM (inactive) | > 100 µM (inactive) | > 100 µM (inactive) | > 100 µM (inactive) | > 100 µM (inactive) | > 100 µM (inactive) | > 100 µM (inactive) | > 100 µM (inactive) | > 100 µM (inactive) | > 100 µM (inactive) | > 100 µM (inactive) | > 100 µM (inactive) | > 100 µM (inactive) | > 100 µM (inactive) | –
NC(CCC(=O)NC(CSCC1C(=O)Nc2ccccc21)C(=O)NCC(=O)O)C(=O)O (centres undefined) | 13.8 µM (inactive) | 7.43 µM (inactive) | 5.27 µM (inactive) | 5.12 µM (inactive) | 5.21 µM (inactive) | 6.31 µM (inactive) | 6.37 µM (inactive) | 5.35 µM (inactive) | 6.3 µM (inactive) | 7.23 µM (inactive) | 7.53 µM (inactive) | 6.15 µM (inactive) | 5.92 µM (inactive) | 6.58 µM (inactive) | 9.53 µM (inactive) | 2.67 µM (inactive) | 4.28 µM (inactive) | 0.466 µM (active) | 6.78 µM (inactive)
C/C(=N\O)c1ccc(OCc2cc(C(F)(F)F)cc(C(F)(F)F)c2)cc1 | > 100 µM (inactive) | 46.1 µM (inactive) | 15.9 µM (inactive) | 29.9 µM (inactive) | 41 µM (inactive) | 43.8 µM (inactive) | 37.2 µM (inactive) | 14.3 µM (inactive) | 41 µM (inactive) | 40.6 µM (inactive) | 61.2 µM (inactive) | 41.9 µM (inactive) | 43.2 µM (inactive) | 61.9 µM (inactive) | 57.1 µM (inactive) | 51.9 µM (inactive) | 32 µM (inactive) | > 100 µM (inactive) | 20.1 µM (inactive)
Cc1cc(=O)oc2c(CN3CCCCC3)c(O)ccc12 | > 100 µM (inactive) | > 100 µM (inactive) | > 100 µM (inactive) | > 100 µM (inactive) | > 100 µM (inactive) | > 100 µM (inactive) | > 100 µM (inactive) | > 100 µM (inactive) | > 100 µM (inactive) | > 100 µM (inactive) | > 100 µM (inactive) | > 100 µM (inactive) | > 100 µM (inactive) | > 100 µM (inactive) | > 100 µM (inactive) | > 100 µM (inactive) | > 100 µM (inactive) | – | > 100 µM (inactive)
O=C(O)[C@@H]1C[C@@H](O)CN1 | > 100 µM (inactive) | > 100 µM (inactive) | > 100 µM (inactive) | > 100 µM (inactive) | > 100 µM (inactive) | > 100 µM (inactive) | > 100 µM (inactive) | > 100 µM (inactive) | > 100 µM (inactive) | > 100 µM (inactive) | > 100 µM (inactive) | > 100 µM (inactive) | > 100 µM (inactive) | > 100 µM (inactive) | > 100 µM (inactive) | > 100 µM (inactive) | > 100 µM (inactive) | > 100 µM (inactive) | > 100 µM (inactive)
C=CC[C@]12C=C(OC)[C@@H](O)[C@](OC)(C(c3cc(OC)c4c(c3)OCO4)[C@H]1C)[C@H]2OC(C)=O (some centres undefined) | > 100 µM (inactive) | > 100 µM (inactive) | > 100 µM (inactive) | > 100 µM (inactive) | > 100 µM (inactive) | 94.6 µM (inactive) | > 100 µM (inactive) | 67.5 µM (inactive) | > 100 µM (inactive) | > 100 µM (inactive) | > 100 µM (inactive) | > 100 µM (inactive) | 8.34 µM (inactive) | > 100 µM (inactive) | > 100 µM (inactive) | 40.7 µM (inactive) | > 100 µM (inactive) | 89.3 µM (inactive) | > 100 µM (inactive)
CC[C@H](C)c1occ2c(O)c(C(=O)O)c(=O)cc-2c1C | 29 µM (inactive) | 30 µM (inactive) | 17.5 µM (inactive) | 19.3 µM (inactive) | 31.5 µM (inactive) | 22.1 µM (inactive) | 24 µM (inactive) | 19.8 µM (inactive) | 17.5 µM (inactive) | 33.8 µM (inactive) | 20.3 µM (inactive) | 19.2 µM (inactive) | 33.7 µM (inactive) | – | 17.3 µM (inactive) | 55.6 µM (inactive) | 20.4 µM (inactive) | – | 25.7 µM (inactive)
Cc1cn(C2CCC(/C=N\O)O2)c(=O)[nH]c1=O (centres undefined) | > 100 µM (inactive) | > 100 µM (inactive) | > 100 µM (inactive) | > 100 µM (inactive) | > 100 µM (inactive) | > 100 µM (inactive) | > 100 µM (inactive) | > 100 µM (inactive) | – | > 100 µM (inactive) | > 100 µM (inactive) | > 100 µM (inactive) | – | > 100 µM (inactive) | > 100 µM (inactive) | > 100 µM (inactive) | > 100 µM (inactive) | > 100 µM (inactive) | > 100 µM (inactive)
COC(=O)C1(C(=O)OC)N=C(C)OC1C(C)C (centres undefined) | > 100 µM (inactive) | > 100 µM (inactive) | > 100 µM (inactive) | > 100 µM (inactive) | > 100 µM (inactive) | > 100 µM (inactive) | > 100 µM (inactive) | > 100 µM (inactive) | – | > 100 µM (inactive) | > 100 µM (inactive) | > 100 µM (inactive) | – | > 100 µM (inactive) | > 100 µM (inactive) | > 100 µM (inactive) | > 100 µM (inactive) | > 100 µM (inactive) | –
CC1=C(CO)C(=O)O[C@@H]([C@@H](CO)[C@H]2CCC3C4C[C@@H](O)[C@@]5(O)CC=CC(=O)[C@]5(C)C4CC[C@@]32C)C1 (some centres undefined) | 63.4 µM (inactive) | > 100 µM (inactive) | 34.1 µM (inactive) | 30 µM (inactive) | 53.7 µM (inactive) | 38.5 µM (inactive) | 71.9 µM (inactive) | 36.3 µM (inactive) | 94 µM (inactive) | > 100 µM (inactive) | > 100 µM (inactive) | 73.1 µM (inactive) | 43.3 µM (inactive) | – | 53.6 µM (inactive) | 35.6 µM (inactive) | 29 µM (inactive) | 24.4 µM (inactive) | 44.2 µM (inactive)
Cc1nc(=O)[nH]c(NCCNCCO)c1C(=O)Nc1cccc2cc3ccccc3cc12 | > 100 µM (inactive) | > 100 µM (inactive) | > 100 µM (inactive) | > 100 µM (inactive) | > 100 µM (inactive) | > 100 µM (inactive) | > 100 µM (inactive) | > 100 µM (inactive) | > 100 µM (inactive) | > 100 µM (inactive) | > 100 µM (inactive) | > 100 µM (inactive) | > 100 µM (inactive) | > 100 µM (inactive) | > 100 µM (inactive) | > 100 µM (inactive) | > 100 µM (inactive) | – | > 100 µM (inactive)
COc1cccc(-c2cc(=O)c3ccc(C)nc3[nH]2)c1 | 0.0405 µM (active) | 0.0728 µM (active) | 0.0459 µM (active) | 0.0277 µM (active) | 0.0454 µM (active) | < 0.01 µM (active) | 0.0115 µM (active) | 0.0741 µM (active) | 0.0403 µM (active) | 0.0434 µM (active) | 0.0594 µM (active) | 0.0847 µM (active) | 0.0671 µM (active) | – | 0.0541 µM (active) | 0.0201 µM (active) | 0.0383 µM (active) | 0.0752 µM (active) | 0.0331 µM (active)
COc1cc(/C=C2\N=C(c3ccccc3)N(c3ccc4c(c3)Sc3cc(N5C(=O)/C(=C/c6cc(OC)c(OC)c(OC)c6)N=C5c5ccccc5)ccc3N4)C2=O)cc(OC)c1OC | 20.7 µM (inactive) | 37.6 µM (inactive) | 22 µM (inactive) | 20.9 µM (inactive) | 31.6 µM (inactive) | 18 µM (inactive) | 19.8 µM (inactive) | 37.2 µM (inactive) | 19.5 µM (inactive) | – | 31 µM (inactive) | 18.5 µM (inactive) | 18.4 µM (inactive) | 40.6 µM (inactive) | 18.5 µM (inactive) | 24.7 µM (inactive) | 42.7 µM (inactive) | 31.3 µM (inactive) | > 100 µM (inactive)
CC(=O)[C@@H](C)C(=O)N1C(=O)OC[C@@]12[C@@H]1CC[C@@H](C1)C2(C)C | > 100 µM (inactive) | > 100 µM (inactive) | > 100 µM (inactive) | > 100 µM (inactive) | > 100 µM (inactive) | > 100 µM (inactive) | > 100 µM (inactive) | – | > 100 µM (inactive) | > 100 µM (inactive) | > 100 µM (inactive) | > 100 µM (inactive) | – | > 100 µM (inactive) | > 100 µM (inactive) | > 100 µM (inactive) | > 100 µM (inactive) | > 100 µM (inactive) | > 100 µM (inactive)
COc1ccc(CN(Cc2ccc(OC)cc2)C(=O)CC2(O)C=CCC2)cc1 (centres undefined) | > 100 µM (inactive) | 46.2 µM (inactive) | 47.6 µM (inactive) | 40 µM (inactive) | > 100 µM (inactive) | 71.4 µM (inactive) | 72.9 µM (inactive) | 31.6 µM (inactive) | > 100 µM (inactive) | > 100 µM (inactive) | 43.1 µM (inactive) | 37.5 µM (inactive) | – | > 100 µM (inactive) | 56.6 µM (inactive) | 81.8 µM (inactive) | > 100 µM (inactive) | 44.9 µM (inactive) | 66.7 µM (inactive)
